Legend:
Molm-13 cells [1] = assay: Proliferation, modified MTT assay (EZ4U) on AML cells; type: cell-based; conditions: 48 h; for inhibition at 2.5 µM: Homo sapiens
Procedure: (§1) Proliferation was measured using a modified MTT assay (EZ4U kit, Biomedica, Vienna, Austria) according to the manufacturer’s instructions. In brief, 2.5 × 10^4 (Molm-13)—5.0 × 10^4 cells (KMS-12-PE cells) were seeded in 96-well plates and substances were added as indicated. Different concentrations are due to the different doubling time of the cells (24 h vs. 48 h). Cells were incubated for 48 h and during the last 7 h of incubation, 3-(4,5-dimethylthiazol-2-yl)-2,5-diphenyltetrazolium bromide was added as a substrate. Reduction of the tetrazolium salt to formazan by the mitochondrial activity of the growing cells was measured as optical density at 492 nm (with 620 nm as reference) on a plate reader. Proliferation (mean +/− SD) was calculated as the percentage of control (without substances). Concentrations used were 10 µM/5 µM/2.5 µM for all substances. Gilteritinib was used as a positive control at 2.5 µM.

Molm-13 cells [2] = assay: Apoptosis measurement (AnnexinV/PI staining) on AML cells; type: cell-based; conditions: for EC50: best-fit model; for viability at 12.5 µM: Molm-13, 12.5 µM; for viability at 12.5 µM / viability at 25 µM / viability at 50 µM: 48 h, read-out: % Alive (cells alive of control); for viability at 25 µM: Molm-13, 25 µM; for viability at 50 µM: Molm-13, 50 µM; for Cytotoxic effect / induction of apoptosis (in words): Molm-13, 12.5-50 µM
Procedure: (§2) Cytotoxicity was measured as induction of apoptosis in myeloma cell line KMS-12-PE and AML cell line Molm-13, staining the cells with AnnexinV-fluorescein isothiocyanate (AnnexinV-FITC) and propidium iodide (PI). Cell lines were purchased from DSMZ (Braunschweig, Germany) and routinely fingerprinted and tested for mycoplasma negativity. All cell lines were grown in RPMI-1640 medium (Life Technologies, Paisley, UK), and supplemented with 10% fetal calf serum (FCS; PAA, Linz, Austria), L-glutamine 100 µg/mL, and penicillin-streptomycin 100 U/mL. Compounds were dissolved in DMSO at a stock concentration of 50 mM and stored at −20 °C. Briefly, 0.5 × 10^6 cancer cells/mL were incubated for 24 h and 48 h with or without the tested compounds at indicated concentrations. Analyses were performed in duplicates and a solvent control was included. The extent of non-apoptotic cells (AnnexinV/propidium iodide negativity) was calculated as the percentage of viable cells in respect to the untreated control. Data are shown as the mean percentage of viable cells +/− standard deviation (SD) (error bars).

KMS-12-PE cells [3] = assay: Apoptosis measurement (AnnexinV/PI staining) on myeloma cells; type: cell-based; conditions: for Cytotoxic effect / induction of apoptosis (in words): 12.5-50 µM; for viability at 12.5 µM / viability at 25 µM / viability at 50 µM / EC50: 48 h; for viability at 12.5 µM / viability at 25 µM / viability at 50 µM: read-out: % Alive (cells alive of control); for EC50: best-fit model
Procedure: as §2

FLT3 = biological target: T1, FLT3 (Homo sapiens, UniProt P36888); assay: FLT3 kinase assay (Z'-LYTE); type: biochemical; conditions: 6.25 nM (lowest concentration), 20 ng FLT3 protein
T1 construct: purchased Thermo Fisher Scientific Inc. (Waltham, MA, USA)
T1 sequence (P36888 27-993): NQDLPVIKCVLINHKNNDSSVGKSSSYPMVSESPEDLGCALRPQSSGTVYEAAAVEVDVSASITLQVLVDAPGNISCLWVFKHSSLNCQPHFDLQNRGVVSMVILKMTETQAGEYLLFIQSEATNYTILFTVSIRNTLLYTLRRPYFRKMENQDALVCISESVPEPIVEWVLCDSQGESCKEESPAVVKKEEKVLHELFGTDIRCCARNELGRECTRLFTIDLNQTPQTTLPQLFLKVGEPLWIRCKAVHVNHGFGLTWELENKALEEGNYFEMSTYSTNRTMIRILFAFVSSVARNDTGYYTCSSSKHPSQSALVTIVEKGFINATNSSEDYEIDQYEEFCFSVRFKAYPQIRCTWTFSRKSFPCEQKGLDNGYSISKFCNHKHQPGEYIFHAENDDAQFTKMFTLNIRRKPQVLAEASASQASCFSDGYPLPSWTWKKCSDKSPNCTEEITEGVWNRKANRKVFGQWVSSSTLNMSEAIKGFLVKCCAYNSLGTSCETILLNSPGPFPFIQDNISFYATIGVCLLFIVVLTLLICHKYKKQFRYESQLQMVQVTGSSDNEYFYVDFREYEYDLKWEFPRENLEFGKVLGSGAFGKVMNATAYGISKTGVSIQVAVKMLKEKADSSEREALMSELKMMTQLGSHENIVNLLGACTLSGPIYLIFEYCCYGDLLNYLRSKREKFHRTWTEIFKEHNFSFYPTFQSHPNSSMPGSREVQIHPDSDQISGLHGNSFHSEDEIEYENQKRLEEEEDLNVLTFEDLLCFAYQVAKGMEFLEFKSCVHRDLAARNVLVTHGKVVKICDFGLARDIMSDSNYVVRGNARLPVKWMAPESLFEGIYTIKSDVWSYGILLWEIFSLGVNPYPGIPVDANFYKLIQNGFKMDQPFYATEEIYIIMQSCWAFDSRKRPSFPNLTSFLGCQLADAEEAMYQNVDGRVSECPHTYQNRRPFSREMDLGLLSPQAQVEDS
Procedure: FLT3 inhibitory activity of compounds 1 and 3 was determined using the Z’-LYTE screening protocol. Z’-LYTE Kinase Assay—Tyrosine 2 Peptide Kit and FLT3 were purchased from Thermo Fisher Scientific Inc. (Waltham, MA, USA). The assay was performed according to the manufacturer’s instructions using a kinase buffer (50 mM HEPES pH 7.5, 0.01% BRIJ-35, 10 mM MgCl2, 1 mM EGTA) containing 0.01 to 20 ng of FLT3. Compounds were measured at concentrations of 50 nM/25 nM/12.5 nM/6.25 nM using gilteritinib as a positive control.

KMS-12-PE cells [4] = assay: Proliferation, modified MTT assay (EZ4U) on myeloma cells; type: cell-based; conditions: 10 to 2.5 µM (gilteritinib 2.5 µM), 48 h
Procedure: as §1

[5] = Molm-13, 2.5 µM, compared to untreated cells

Row | EC50 (Molm-13 cells [2]; Homo sapiens, MOLM-13, 48 h) [µM] | EC50 (KMS-12-PE cells [3]; Homo sapiens) [µM] | inhibition at 0.00625 µM (FLT3) [%] | EC50 (Molm-13 cells [2]; Molm-13, 48 h) [µM] | EC50 (KMS-12-PE cells [3]) [µM] | SMILES | Effect on proliferation (in words) (Molm-13 cells [1]; Molm-13, 2.5 µM, positive control) | viability at 12.5 µM (Molm-13 cells [2]; Homo sapiens) [%] | viability at 25 µM (Molm-13 cells [2]; Homo sapiens) [%] | viability at 50 µM (Molm-13 cells [2]; Homo sapiens) [%] | Cytotoxic effect / induction of apoptosis (in words) (Molm-13 cells [2]) | Cytotoxic effect / induction of apoptosis (in words) (KMS-12-PE cells [3]) | viability at 12.5 µM (KMS-12-PE cells [3]; Homo sapiens) [%] | viability at 25 µM (KMS-12-PE cells [3]; Homo sapiens) [%] | viability at 50 µM (KMS-12-PE cells [3]; Homo sapiens) [%] | Inhibition of proliferation (in words) (KMS-12-PE cells [4]) | inhibition at 2.5 µM (Molm-13 cells [1]; [5]) [%] | Inhibition of proliferation (Molm-13 cells [1]; Molm-13, concentrations from 10 to 2.5 µM, compared to untreated cells)
1 |  |  |  |  |  | CCc1nc(C(N)=O)c(Nc2ccc(N3CCC(N4CCN(C)CC4)CC3)c(OC)c2)nc1NC1CCOCC1 [gilteritinib, reference compound] | high effect |  |  |  |  |  |  |  |  |  |  | 
2 | > 50 | > 50 |  |  |  | O=c1c(O)c(-c2ccc(O)c(O)c2)oc2cc(O)cc(O)c12 [Compound 8, quercetin] |  | 100 ± 2.2 | 94.4 ± 3.9 | 79.8 ± 10.2 | induced apoptosis | induced apoptosis | 96.6 ± 2.7 | 79 ± 4.8 | 43.7 ± 8.3 |  |  | 
3 | > 50 | > 50 |  |  |  | O=c1c(O)c(-c2ccc(O)cc2)oc2cc(O)cc(O)c12 [Compound 7, kaempferol] |  | 93.1 ± 5.1 | 83.1 ± 5.7 | 50.2 ± 11.4 | induced apoptosis | induced apoptosis | 98 ± 2.7 | 91.2 ± 15 | 76.3 ± 17.3 |  |  | 
4 | ~22 | > 50 | 81 | 21.7 |  | COc1cc2oc(-c3ccc(O)cc3)cc(=O)c2c(O)c1OC [Compound 1, cirsimaritin] |  | 77.3 ± 9 | 48.4 ± 12 | 12.9 ± 4.1 | induced apoptosis | induced apoptosis | 86.8 ± 14.5 | 76.6 ± 25.6 | 58.9 ± 28.6 | marginally | 72 | 
5 | > 50 | 26 |  |  | 25.7 | COc1ccc(-c2cc(=O)c3c(O)cc(O)cc3o2)cc1O [Compound 6, diosmetin] |  | 91.5 ± 2.8 | 76.2 ± 6.7 | 39.8 ± 5.8 |  |  | 77.3 ± 6.9 | 44.2 ± 19 | 31.1 ± 5.3 |  |  | 
6 | > 50 | > 50 |  |  |  | O[C@@H]1O[C@H](c2ccc3c(c2)OCO3)[C@H]2CO[C@H](c3ccc4c(c3)OCO4)[C@H]21 [Compound 10, (+)-9α-hydroxysesamin] |  | 101 ± 1.4 | 100 ± 2 | 98.7 ± 1.7 |  |  | 99 ± 0.6 | 96.7 ± 0.5 | 89.4 ± 0.8 |  |  | 
7 | > 50 | > 50 |  |  |  | COc1cc([C@H]2OC[C@H]3[C@@H]2CO[C@@H]3c2ccc3c(c2)OCO3)ccc1O [Compound 9, (+)-piperitol] |  | 102 ± 1.3 | 100 ± 2.1 | 97.5 ± 2.4 |  |  | 102.8 ± 0.8 | 100.1 ± 0.8 | 97.1 ± 4.1 |  |  | 
8 | ~28 | 45.4 | 88 | 28 |  | COc1c(OC)c(O)c2c(=O)cc(-c3ccc(O)cc3)oc2c1OC [Compound 3, xanthomicrol] |  | 56.4 ± 9.1 | 53.5 ± 1 | 47 ± 2.7 |  |  | 69.5 ± 16 | 62.6 ± 13.1 | 55.4 ± 13.1 | marginally | 84 | up to 93%
9 | > 50 | > 50 |  |  |  | O=c1cc(-c2ccc(O)cc2)oc2cc(O)cc(O)c12 [Compound 4, apigenin] |  | 98 ± 1.6 | 89.5 ± 3.9 | 58.4 ± 14.2 |  |  | 85.5 ± 10.6 | 69.4 ± 31.3 | 59.6 ± 16.1 |  |  | 
10 | 42.3 | > 50 |  |  |  | O=c1cc(-c2ccc(O)c(O)c2)oc2cc(O)cc(O)c12 [Compound 5, luteolin] |  | 86.5 ± 5.2 | 72.4 ± 4 | 30.2 ± 13.7 |  |  | 80.3 ± 5.4 | 70.5 ± 5.6 | 50.3 ± 18.4 |  |  | 
11 | > 50 | > 50 |  |  |  | O=C(/C=C/c1ccc(O)c(O)c1)O[C@H](Cc1ccc(O)c(O)c1)C(=O)O [Compound 12, (R)-(+)-rosmarinic acid] |  | 97.6 ± 3.2 | 98.5 ± 3.6 | 100.8 ± 0.6 |  |  | 100.2 ± 0.9 | 102 ± 1.5 | 98.2 ± 1.5 |  |  | 
12 | > 50 | > 50 |  |  |  | O=C(O)/C=C/c1ccc(O)c(O)c1 [Compound 11, caffeic acid] |  | 96.9 ± 4.6 | 98.1 ± 3.8 | 98.8 ± 2.8 |  |  | 102 ± 1.8 | 102.5 ± 0.9 | 102.6 ± 0.5 |  |  | 
13 | > 50 | > 50 |  |  |  | COc1ccc(-c2cc(=O)c3c(O)c(OC)c(OC)cc3o2)cc1OC [Compound 2, 5-desmethylsinensetin] |  | 91.1 ± 3.4 | 90.9 ± 0.4 | 88.6 ± 1.8 | no effects | no effects | 94.6 ± 10.2 | 93.4 ± 9.3 | 93.1 ± 10.2 |  |  | 
14 | > 50 | > 50 |  |  |  | COc1cc(/C=C/C(=O)O[C@H](Cc2ccc(O)c(O)c2)C(=O)O)ccc1O [Compound 13, (R)-(+)-3′-O-methylrosmarinic acid] |  | 99.6 ± 2.6 | 99.4 ± 1.9 | 97.8 ± 4 |  |  | 102 ± 1.6 | 101 ± 1.8 | 101 ± 3.4 |  |  | 

— publication PMC9696366, “Flavones, Flavonols, Lignans, and Caffeic Acid Derivatives from Dracocephalum moldavica and Their In Vitro Effects on Multiple Myeloma and Acute Myeloid Leukemia” (International Journal of Molecular Sciences, 2022)
